Measured values taken from patent publication US9339486B2, “Heterocyclic modulators of cannabinoid receptors” (THE CLEVELAND CLINIC FOUNDATION, priority 2008, dated 2016).

Target: rCB2 receptors (Rattus norvegicus (Rat), UniProt Q9QZN9)
Test: cAMP activation assay rCB2
Assay type: cell-based
Conditions: read-out: Agonist EC50 (mean ± s.e. mean) cAMP activation assays rCB2
Method: The compound of Example 3 was tested for agonist activity at the rat CB1 (rCB1) and rCB2 receptors, at eight concentrations, in duplicate: 10, 3, 1, 0.3, 0.1, 0.03, 0.01 and 0.001 μM. Recombinant cells grown to mid-log phase in culture media without antibiotics were detached with PBS containing 5 mM EDTA, centrifuged and resuspended in assay buffer at a concentration of 16.6×10^5 cells/ml. The test was performed in 96 well plates. For testing, 12 μl of cells ([…]) were mixed with 12 μl of agonist at increasing concentrations. […] The plates were then incubated for 30 min at room temperature. After addition of the lysis buffer, cAMP concentrations were estimated, according to the manufacturer specification, with the HTRF kit from Cis-Bio International (Catalogue number 62AM2PEB).

## CC1(Cc2ccccc2)COc2cc(C(=O)N3CCCCC3)ccc21 (stereo not shown) [Example 3, 3-benzyl-3-methyl-2,3-dihydrobenzofuran-6-carboxylic acid-piperidine amide]
  EC50: 21.7 ± 7.9 nM
